We go through 5 compounds from PMC8193492, “Yeast Cell-Based Transport Assay for the Functional Characterization of Human 4F2hc-LAT1 and ‐LAT2, and LAT1 and LAT2 Substrates and Inhibitors” (Frontiers in Molecular Biosciences, 2021).

A word on the IC50: it is the midpoint of a concentration-inhibition curve. By Ki is commonly meant a dissociation constant, usually derived from enzyme kinetics or from competition with a known ligand. One may read the Km as the concentration of substrate that gives half-maximal velocity.

Assay [1] deals with T1, human LAT1 (Homo sapiens, UniProt Q01650). As to the kind of experiment: cell-based.
Procedure: (§1) Resulting cells were resuspended in transport buffer (150 mM choline chloride, 1 mM MgCl2, 1 mM CaCl2, 10 mM Tris-HEPES, pH 7.4) containing 50% (v/v) glycerol and the OD600 was adjusted to 40. Cells were stored at −18°C until further use.
(§2) For transport studies, 1 ml of thawed P. pastoris cells (OD600 40) expressing the corresponding transporter were diluted in 50 ml transport buffer and pelleted by centrifugation (3,000 × g, 15 min, room temperature). The pellet was then washed by resuspending it in 50 mL transport buffer and by repeating the washing procedure (centrifugation and resuspension) two times. Finally, the cell pellet was resuspended in 2 ml of transport buffer and incubated for 20 min at 30°C under agitation (300 rpm, Multitron, Infors HT, Bottmingen, Switzerland). […] All transport experiments were performed in a reaction volume of 100 µL. […] The competitors were prepared in 100% (v/v) DMSO. The final DMSO concentration was always 0.5% (v/v), independently of which final substrate or inhibitor concentration was used in the assay. Control samples contained the same concentration of DMSO. Final OD600 values in uptake experiments were 0.75 for all cells (4F2hc-LAT1, LAT1, 4F2hc-LAT2 or LAT2 expressing cells) and untransformed P. pastoris KM71H cells. All transport reactions were done in 2 ml reaction tubes (Eppendorf, Hamburg, Germany) at 25°C under agitation (1,000 rpm, Thermomixer compact, Eppendorf, Hamburg, Germany). Uptakes were terminated after 10 min (uptake time) for all cells by adding 600 µL of pre-chilled transport buffer. Cells were rapidly separated from the buffer by transferring the stopped reactions on a 96-well 0.66 mm glass fiber filter plate (Corning FiltrEX, Corning, NY, United States) and vacuum filtration. Each well was washed with 2 ml of ice-cold transport buffer to remove free radioligand. The plate was then dried overnight at 37°C, and the backside was sealed with a BackSeal (PerkinElmer, Waltham, MA, United States). The trapped radioligand was released by addition of 200 µL scintillation cocktail (MicroScint 40, PerkinElmer, Waltham, MA, United States) to each well, and the plate topside was sealed with Topseal^TM-A Plus (PerkinElmer, Waltham, MA, United States), followed by incubation for 30 min at 25°C and 1,000 rpm (Thermomixer compact, Eppendorf, Hamburg, Germany). Counts were measured in each well for 2 min with a scintillation counter (TopCount NXT, PerkinElmer, Waltham, MA, United States).
(§3) Experiments were performed at least in triplicate. For data analysis, the signal of the untransformed P. pastoris cells was subtracted from the transporter signal to obtain the net transport signal. Data from three independent experiments were taken. […] Every experimental data point was then individually normalized using the corresponding upper plateau values (i.e., the fitted upper plateau value that corresponds to 100%). Single, normalized data points from the three independent experiments were averaged and a sigmoidal model curve was fitted to the data in order to obtain the IC50 values. Prism6 (GraphPad Software) was used for data analysis.
For assay [2], the target named is T2, human LAT2 (Homo sapiens, UniProt Q9UHI5).
T2 construct: expressed in transfected cells; host or cells: Pichia pastoris KM71H (pPICZB vector)
T2 sequence (Q9UHI5 1-535): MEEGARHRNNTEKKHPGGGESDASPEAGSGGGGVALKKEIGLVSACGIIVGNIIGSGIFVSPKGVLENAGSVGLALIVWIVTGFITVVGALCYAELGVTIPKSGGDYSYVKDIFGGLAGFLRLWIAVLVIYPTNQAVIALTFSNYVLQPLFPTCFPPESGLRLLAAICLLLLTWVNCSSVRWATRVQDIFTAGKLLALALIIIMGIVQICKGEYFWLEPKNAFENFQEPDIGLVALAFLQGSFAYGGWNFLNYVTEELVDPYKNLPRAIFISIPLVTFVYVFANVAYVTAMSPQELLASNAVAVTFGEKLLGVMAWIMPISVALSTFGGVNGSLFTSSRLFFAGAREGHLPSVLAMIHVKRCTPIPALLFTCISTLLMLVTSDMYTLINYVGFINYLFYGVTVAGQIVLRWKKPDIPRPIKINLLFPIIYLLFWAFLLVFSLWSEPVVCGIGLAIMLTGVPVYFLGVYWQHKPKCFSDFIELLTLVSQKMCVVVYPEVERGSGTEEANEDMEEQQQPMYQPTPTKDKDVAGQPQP
The experiment in a line: [3H]L-leucine radioligand transport assay, P. pastoris cells expressing LAT2. Format: cell-based. The conditions noted are these: P. pastoris KM71H cells, OD600 0.75, 0.1 µM [3H]L-leucine, 10 min uptake, 25°C.

In assay [3] the target is 4F2hc-LAT1. The conditions noted are these: cited from earlier work; for IC50: read-out: 4F2hc-LAT1 IC50 of L-leucine uptake.
Assay [4] deals with 4F2hc-LAT1. Particulars: host Oocytes, cited from earlier work.
In assay [5] the target is T3, human 4F2hc-LAT1 (Homo sapiens, UniProt Q01650).
T3 construct: expressed in transfected cells; host or cells: Pichia pastoris KM71H (pPICZB vector)
The experiment in a line: [3H]L-leucine radioligand transport assay, P. pastoris cells expressing 4F2hc-LAT1. Format: cell-based.

Assay [6] deals with T4, human 4F2hc-LAT2 (Homo sapiens, UniProt Q9UHI5).
T4 construct: expressed in transfected cells; host or cells: Pichia pastoris KM71H (pPICZB vector)
T4 sequence (Q9UHI5 1-535): T2 sequence (Q9UHI5 1-535)
T4 sequence (P08195 1-529 partner): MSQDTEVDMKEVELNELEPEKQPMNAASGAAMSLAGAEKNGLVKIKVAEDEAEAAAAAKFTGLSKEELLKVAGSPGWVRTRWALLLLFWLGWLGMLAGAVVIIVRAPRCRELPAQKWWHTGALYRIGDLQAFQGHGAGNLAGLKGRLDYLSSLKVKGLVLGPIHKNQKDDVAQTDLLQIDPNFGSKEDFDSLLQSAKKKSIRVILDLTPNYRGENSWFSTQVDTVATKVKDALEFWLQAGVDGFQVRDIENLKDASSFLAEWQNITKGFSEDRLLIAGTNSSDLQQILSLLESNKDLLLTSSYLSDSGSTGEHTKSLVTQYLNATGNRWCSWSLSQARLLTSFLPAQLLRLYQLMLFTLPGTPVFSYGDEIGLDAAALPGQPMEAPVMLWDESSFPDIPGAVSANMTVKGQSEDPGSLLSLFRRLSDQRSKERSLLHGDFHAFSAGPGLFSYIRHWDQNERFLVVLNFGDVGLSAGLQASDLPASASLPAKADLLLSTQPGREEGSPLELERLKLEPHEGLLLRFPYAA
The experiment in a line: [3H]L-leucine radioligand transport assay, P. pastoris cells expressing 4F2hc-LAT2. Format: cell-based. The conditions noted are these: P. pastoris KM71H cells, OD600 0.75, 0.1 µM [3H]L-leucine, 10 min uptake, 25°C; read-out: IC50 of L-leucine uptake, 4F2hc-LAT2 (this work).

Assay [7] relates to 4F2hc-LAT1. Also on record: method as in Häfliger et al. (2018). Particulars: host 8505c; ref Häfliger et al. (2018); read-out: 4F2hc-LAT1 IC50 of L-leucine uptake; cited from earlier work.
In assay [8] the test system is 4F2hc-LAT1. The arrangement: method as in Häfliger et al. (2018). Particulars: host HT-29; ref Häfliger et al. (2018); read-out: 4F2hc-LAT1 IC50 of L-leucine uptake; cited from earlier work.
In assay [9] the test system is 4F2hc-LAT1. Also on record: method as in Yothaisong et al. (2017). The conditions noted are these: host KKU-055; ref Yothaisong et al. (2017); read-out: 4F2hc-LAT1 IC50 of L-leucine uptake; cited from earlier work.
Assay [10] has as its target T4, human 4F2hc-LAT2. Particulars: cited from earlier work; for IC50: host S2 cells, read-out: 4F2hc-LAT2 IC50 of L-leucine uptake.
The subject of assay [11] is 4F2hc-LAT1. Also on record: method as in Yothaisong et al. (2017). The conditions noted are these: host KKU-213; ref Yothaisong et al. (2017); read-out: 4F2hc-LAT1 IC50 of L-leucine uptake; cited from earlier work.
For assay [12], the target named is T1, human LAT1. The conditions noted are these: Pichia cells expressing the light subunits alone.
Procedure: as §1, §2, §3
The subject of assay [13] is 4F2hc-LAT1. The arrangement: method as in Yun et al. (2014). The conditions noted are these: host YD-38; ref Yun et al. (2014); read-out: 4F2hc-LAT1 IC50 of L-leucine uptake; cited from earlier work.
Assay [14] relates to 4F2hc-LAT1. The arrangement: method as in Yothaisong et al. (2017). The conditions noted are these: host KKU-100; ref Yothaisong et al. (2017); read-out: 4F2hc-LAT1 IC50 of L-leucine uptake; cited from earlier work.
Assay [15] deals with 4F2hc-LAT1. The conditions noted are these: host Saos2, read-out: 4F2hc-LAT1 IC50 of L-leucine uptake, cited from earlier work.
Assay [16] relates to 4F2hc-LAT1. Also on record: method as in Häfliger et al. (2018). The conditions noted are these: host SW1736; ref Häfliger et al. (2018); read-out: 4F2hc-LAT1 IC50 of L-leucine uptake; cited from earlier work.
For assay [17], the system named is 4F2hc-LAT2. Also on record: method as in Pineda et al. (1999). The conditions noted are these: host Oocytes; ref Pineda et al. (1999); cited from earlier work.
In assay [18] the test system is 4F2hc-LAT1. The arrangement: method as in Kantipudi et al. (2020). The conditions noted are these: host Pichia pastoris, ref Kantipudi et al. (2020), cited from earlier work.
In assay [19] the test system is 4F2hc-LAT2. The arrangement: method as in Kantipudi et al. (2020). The conditions noted are these: host Pichia pastoris, ref Kantipudi et al. (2020), cited from earlier work.
For assay [20], the system named is 4F2hc-LAT1. Also on record: method as in Kim et al. (2008). The conditions noted are these: host C6 cells; reference cell empty, line above: ref Kim et al. (2008); read-out: 4F2hc-LAT1 IC50 of L-leucine uptake; cited from earlier work.
Assay [21] deals with 4F2hc-LAT1. The arrangement: method as in Khunweeraphong et al. (2012). The conditions noted are these: host HEK293; ref Khunweeraphong et al. (2012); read-out: 4F2hc-LAT1 IC50 of L-leucine uptake; cited from earlier work.
Assay [22] concerns 4F2hc-LAT1. The arrangement: method as in Kim et al. (2008). Particulars: host KB cells; ref Kim et al. (2008); read-out: 4F2hc-LAT1 IC50 of L-leucine uptake; cited from earlier work.
[23] abbreviates: P. pastoris KM71H cells, OD600 0.75, 0.1 µM [3H]L-leucine, 10 min uptake, 25°C, read-out: IC50 of L-leucine uptake, 4F2hc-LAT1 (this work).

Molecules are shown by their SMILES. “And” between values parts separate entries of the source, which are not always exact repeats. Equal values may be shown once. Read-outs that look alike come from different tables or passages of the source. Where only a bound is given, the exact number is not on record here.

T3 sequence (Q01650 whole entry, one chain of several): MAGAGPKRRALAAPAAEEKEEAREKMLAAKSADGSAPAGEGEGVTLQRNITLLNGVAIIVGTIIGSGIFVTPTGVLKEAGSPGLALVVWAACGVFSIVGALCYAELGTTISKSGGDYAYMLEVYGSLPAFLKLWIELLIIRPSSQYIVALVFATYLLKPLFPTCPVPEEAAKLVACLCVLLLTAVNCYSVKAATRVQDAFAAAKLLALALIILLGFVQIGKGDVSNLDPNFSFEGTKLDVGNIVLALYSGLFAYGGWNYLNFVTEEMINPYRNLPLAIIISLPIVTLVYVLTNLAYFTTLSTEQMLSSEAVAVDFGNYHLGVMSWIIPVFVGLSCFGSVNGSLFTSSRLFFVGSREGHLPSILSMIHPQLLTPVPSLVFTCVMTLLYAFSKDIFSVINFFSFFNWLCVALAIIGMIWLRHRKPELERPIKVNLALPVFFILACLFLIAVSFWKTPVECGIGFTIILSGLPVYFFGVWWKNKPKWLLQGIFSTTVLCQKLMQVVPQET
T1 sequence (Q01650 whole entry): as the sequence (Q01650 whole entry, one chain of several) above

`NC(Cc1cc(I)c(Oc2cc(I)c(O)c(I)c2)c(I)c1)C(=O)O` (stereo not shown) [T4, thyroxine]: the concentration for half-maximal inhibition (IC50) in assay [1] came to 8 µM; in assay [2] it was 25 µM; in assay [5], 10 µM; in assay [6] it was 42 µM. Moreover, the Ki in [3] (host S2 cells, ref Morimoto et al. (2008), read-out: 4F2hc-LAT1 Ki of L-leucine uptake) was 115 ± 2 µM. The Km is 7.9 µM in assay [4] (ref Friesema et al. (2001)) and 6.3 µM in assay [4] (ref Ritchie et al. (1999)). In addition, the “specificity for 4F2hc-LAT1 compared with 4F2hc-LAT2 (from IC50s)” value in assay [5] (P. pastoris cell assay) is recorded as “about four-times higher”.
For the compound `Nc1cc(COc2c(Cl)cc(C[C@H](N)C(=O)O)cc2Cl)c2oc(-c3ccccc3)nc2c1` [JPH203, (S)-2-amino-3-(4-((5-amino-2-phenylbenzo [d]oxazol-7-yl)-methoxy)-3,5-dichlorophenyl)-propanoic acid], the concentration for half-maximal inhibition (IC50) in assay [7] was 0.12 µM; in [1], 0.346 µM; in assay [2], 1.7 µM; in [8] it was 0.134 µM; in assay [3] (host S2 cells, ref Endou et al. (2008)), 0.19 µM and 0.2 µM; in assay [3] (host S2 cells, ref Oda et al. (2010)), 0.14 µM. Besides, the half-maximal inhibitory concentration (IC50) is 0.2 ± 0.03 µM in [9]; greater than 10 µM in assay [10] (ref Oda et al. (2010)); 0.197 µM in assay [5] (setting [23]); 0.12 ± 0.02 µM in assay [11]; 0.79 ± 0.06 µM in [13]; 0.25 ± 0.04 µM in assay [14]. The IC50 in [15] (ref Choi et al. (2017)) is 1.31 ± 0.27 µM; in assay [6], 1.5 µM; in assay [16] it was 0.177 µM. The “IC50(S2-LAT2)/IC50(S2-LAT1) ratio” value in assay [3] (S2 cells, ref Oda et al. (2010)) is given as greater than 500. Moreover, in [10] (S2 cell-based assay, at 10 µM, ref Endou et al. (2008)), the “inhibition of human 4F2hc-LAT2” value is listed as “almost no inhibition”. Moreover, the “IC50(Pichia-4F2hc-LAT2)/IC50(Pichia-4F2hc-LAT1) ratio” value in [5] (P. pastoris cell assay) was “about 7.6”. In addition, in [5] (P. pastoris cell assay), the “specificity for 4F2hc-LAT1 compared with 4F2hc-LAT2 (from IC50s)” value is “about 7.6 fold”. Further, the “IC50(Pichia-LAT2)/IC50(Pichia-LAT1) ratio” value in [12] was “about 4.9”.
Turning to `CC(C)C[C@H](N)C(=O)O` [L-leucine], the Km in assay [17] is 220 µM; in [4] (ref Friesema et al. (2001)) it was 46 µM; in [4] (ref Kanai et al. (1998)), 18.1 ± 3.4 µM; in [4] (ref Yanagida et al. (2001)), 19.7 ± 4.1 µM; in assay [18] (read-out: 4F2hc-LAT1 KM of L-leucine uptake), 25 ± 3 µM; in assay [19] (read-out: 4F2hc-LAT2 KM of L-leucine uptake) it was 249 ± 22 µM. Besides, the IC50 in [1] is 9 µM; in assay [2], 39 µM; in [18] (read-out: 4F2hc-LAT1 IC50 of L-leucine uptake), 38 µM; in assay [5] (setting [23]), 22 µM; in assay [19] (read-out: 4F2hc-LAT2 IC50 of L-leucine uptake), 221 µM; in [6], 210 µM.
For `NC1(C(=O)O)CC2CCC1C2` (stereo not shown) [BCH, 2-aminobicyclo-(2,2,1)-heptane-2-carboxylic acid], the half-inhibitory concentration (IC50) was 78 µM in [1]; 184 µM in assay [2]; 73.1 ± 4.5 µM in assay [20]; 78.3 ± 12.1 µM in assay [21]; 132 ± 27.8 µM in [3] (host S2 cells, ref Morimoto et al. (2008)); 75.3 ± 6.7 µM in assay [22]. The IC50 is 315 ± 68.6 µM in [10] (ref Morimoto et al. (2008)); 72 µM in assay [5] (setting [23]); 92.6 ± 8.9 µM in assay [13]; 72.2 ± 0.92 µM in assay [15] (ref Choi et al. (2017)); 78.8 ± 3.5 µM in assay [15] (ref Kim et al. (2008)); 195 µM in assay [6]. The “specificity for 4F2hc-LAT1 compared with 4F2hc-LAT2 (from IC50s)” value in [5] (P. pastoris cell assay) is reported as “about 2.7 fold”.
For the compound `N[C@@H](Cc1cc(I)c(Oc2ccc(O)c(I)c2)c(I)c1)C(=O)O` [T3, triiodothyronine], the Michaelis-Menten constant (Km) in assay [4] (ref Friesema et al. (2001)) was 0.8 µM; in assay [4] (ref Ritchie et al. (1999)) it was 1.8 µM.
